System: prolactin
Assay: Serum prolactin levels in rats, reserpinized and non-reserpinized
Assay type: in vivo, rats of the Sprague-Dawley strain
Conditions: for Prolactin Levels Non-Reserpinized 1 / Prolactin Levels Non-Reserpinized 2: rats not pretreated with reserpine, compound 1 mg./kg.; for Prolactin Levels Non-Reserpinized 1: run 1; for Prolactin Levels Non-Reserpinized 2: run 2; for Prolactin Levels Reserpinize: reserpine 2.0 mg. i.p. 18 hours before, compound 1 mg./kg. intraperitoneally, serum one hour after treatment
Procedure: Adult male rats of the Sprague-Dawley strain weighing about 200 g. were housed in an air-conditioned room with controlled lighting (lights on 6 a.m. - 8 p.m.) and fed lab chow and water ad libitum. Each rat received an intraperitoneal.injection of 2.0 mg. of reserpine in aqueous suspension 18 hours before administration of the compound of formula I. The purpose of the reserpine was to keep prolactin levels uniformly elevated. The compounds under test were dissolved in water and were injected intraperitoneally at a 1 mg./kg. dose level. Each compound was administered to a group of 10 rats, and a control group of 10 intact males received an equivalent amount of solvent. One hour after treatment all rats were killed by decapitation, and 150 ul. aliquots of serum were assayed for prolactin.
In addition, prolactin levels were determined in two runs in which the rats were not pretreated with reserpin. The dose level of the drug was maintained at 1 mg./kg.

SMILES	Prolactin Levels Non-Reserpinized 1	Prolactin Levels Non-Reserpinized 2	Prolactin Levels Reserpinize
CCCN1CCc2cc(O)c(O)c3c2C1Cc1c[nH]nc1-3 (racemic) [1,2-Dihydroxy-6-n-propyl-4,5,,6,6a,7,9-hexahydroindazolo[7,6,5-ij]isoquinoline]	40.0±9.5 (P<.05)	23.8±2.8	49.9±6.0 (P<.01)
C=CCN1CCc2cc(OC)c(OC)c3c2C1Cc1c[nH]nc1-3 (racemic) [l,2-Dimethoxy-6-allyl-4,5,6,6a,7,9-hexahydroindazolo[7,6,5-ij]isoquinoline]	7.3±1.6	–	26.7±2.7
CN1CCc2cc(O)c(O)c3c2C1Cc1c[nH]nc1-3 (stereo not shown) [1,2-Dihydroxy-6-methyl-4,5,6,6a,7,9-hexahydroindazolo[7,6,5-ij]isoquinoline]	45.2±5.4 (P<.001)	21.6±3.9	36.4±4.9
CCN1CCc2cc(OC)c(OC)c3c2C1Cc1c[nH]nc1-3 (stereo not shown) [1,2-Dimethoxy-6-ethyl-4,5,6,6a,7,9-hexahydroindazolo[7,6,5-ij]isoquinoline]	4.6±0.6	–	30.5±4.9
COc1cc2c3c(c1OC)-c1n[nH]cc1CC3N(C)CC2 (stereo not shown) [1,2-Dimethoxy-6-methyl-4,5,6,6a,7,9-hexahydroindazolo[7,6,5-ij]isoquinoline]	36.6±6.6 (P<.02)	9.0±3.2	41.6±7.7
CN1CCc2cccc3c2C1Cc1c[nH]nc1-3 (stereo not shown) [6-Methyl-4,5,6,6a,7,9-hexahydroindazolo-[7,6,5-ij]isoquinoline]	19.7±3.1	11.8±2.7	39.3±7.3
CCCN1CCc2cccc3c2C1Cc1c[nH]nc1-3 (stereo not shown) [6-n-Propyl-4,5,6,6a,7,9-hexahydroindazolo[7,6,5-ij]isoquinoline]	9.5±1.7	7.8±2.6	22.6±3.8

Reference: patent EP0061341A2, “6-Substituted hexahydroindazolo isoquinolines” (priority 1981, dated 1982)
